Experimental data as given in patent US20120295838A1, “Selective poly-substituted glycine antibiotics and related compositions” (priority 2008, published 2012).
Several values for one entry are separate records, joined by “and”; a condition that tells them apart may be missing. Equal values may be shown once. Read-outs that look alike come from different tables or passages of the source. Numbered stars: 1 amine (or outer) side, 2 acyl side, 3 side chain; on linkers, the order of the positions; unused ones are H or OH. Square brackets hold non-standard residues; d marks the D form. Ends that are not written are not given here. Peptide text beside a SMILES is read from it. Gly(N-CH2CH2-imidazol-4-yl) = O=C(O)CNCCc1c[nH]cn1; X1 = CC(C)[C@H](C)N(CC(=O)[*:2])[*:1]; Nspe = C[C@H](NCC(=O)O)c1ccccc1; Nphe = O=C(O)CNCc1ccccc1; Nlys = NCCCCNCC(=O)O

Columns and labels:
Type in all cases: cell-based
[1] = tested on: E. coli JM109; conditions: Table 1; SR = (HD10)/(E. coli MIC); listed as 1-/Vhis6,12
Text: An initial set of 15 ampetoid analogs was synthesized to determine whether peptoids are affected by structural and sequence modifications in a manner consistent with AMP activities. The designs for ampetoids in this library were derived from two antibacterial and selective amphipathic dodecamers, 1 and 2. Peptoid 1 [H-(Nlys-Nspe-Nspe)4-NH2] is composed of 2/3 Nspe, the peptoid analog of phenylalanine, and 1/3 Mys, the peptoid analog of lysine (see FIG. 1 for the structures of representative peptoid monomers and corresponding N-substituents). Peptoid 2 [H-(Mys-Nssb-Nspe)4-NH2] contains 1/3 isoleucine-like Nssb monomers in place of Nspe. The variant sequences were designed to effect changes in chirality, length, hydrophobicity, charge, and amphipathicity. All of these compounds were tested for antibacterial activity against representative BSL1 Gram-negative (E. coli JM109) and Gram-positive (B. subtilis BR151) bacterial strains. As an initial measure of selectivity, the lytic activity of the peptoids was determined against human erythrocytes. Table 1 summarizes the sequences synthesized, the solvent composition at RP-HPLC elution as a relative measure of molecular hydrophobicity, and antibacterial and hemolytic activities.
Antibacterial assays. MICs were determined according to CLSI M7-A6 protocols in a 96-well microtiter plate. […]

[2] = tested on: B. subtilis ATCC 6633; conditions: for Selectivity ratio SR B. subtilis: Table 6, ratio of 10% hemolytic dose to B. subtilis MIC
Summary of the method: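 Broth microdilution MICs per CLSI M7-A6 in cation-adjusted Mueller-Hinton broth, using 1×10^6 CFU/mL inoculum added 1:1 to twofold serial peptoid dilutions. Values reproducible across three independent experiments, each with two parallel trials.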

[3] = tested on: E. coli ATCC 35218; conditions: for SR: Table 8, calculated as HD10/E. coli MIC; for Selectivity ratio SR E. coli: Table 6, ratio of 10% hemolytic dose to E. coli MIC
[4] = tested on: Proteus mirabilis ATCC 35659; test: Broad-spectrum antibacterial MIC; conditions: Table 7B; 10% hemolytic dose divided by MIC; P. mirabilis ATCC 35659
Procedure: (§1) Antibacterial assays. MICs were determined according to CLSI M7-A6 protocols in a 96-well microtiter plate. In test wells, 50 uL bacterial inoculum (5×10^5 CFU/ml) in Mueller-Hinton broth (MHB) was added to 50 μL peptoid solution in MHB (prepared by 1:2 serial dilutions). Positive controls contained 50 μL inoculum and 50 μL MHB without peptoid. […] MIC values reported were reproducible between three independent experimental replicates, each consisting of two parallel trials. Broad-spectrum antimicrobial susceptibility testing was performed against BSL2 pathogens by Nova Biologicals, Inc. (Conroe, Tex.).
(§2) Broad-spectrum antibacterial assays. MICs of compounds were determined by microdilution procedure in Mueller-Hinton broth (MHB) in accordance with CLSI M7-A6 protocols in a manner similar to that described for the screen antibacterial assays. Inoculated microtiter plates were incubated at 35° C. for 24 hours prior to the result being recorded. Four ATCC strains that were used as standards are recommended by CLSI: Pseudomonas aeruginosa ATCC 27853, Escherichia coli ATCC 25922, Staphylococcus aureus ATCC 29213 and Enterococcus faecalis ATCC 29212. Other strains from the ATCC collection include Proteus vulgaris ATCC 49132, Proteus mirabilis ATCC 35659, Klebsiella pneumoniae ATCC 33495, Enterobacter aerogenes ATCC 35029 and Serratia marcescens ATCC 13880. S. aureus NRS100 (COL) is a well characterized methicillian-resistant S. aureus (MRSA) strain. The strains S. aureus VAN1 and S. aureus VAN2, vancomycin-resistant MRSA strains that were isolated in Michigan and Pennsylvania, were the first vancomycin-resistant strains clinically isolated. S. aureus NRS 119 and S. aureus NRS 120 are linezolid-resistant isolates from the Network on Antimicrobial Resistance in S. aureus (NARSA) collection. E. faecalis 99 and E. faecium 106 are vancomycin-resistant enterococcal strains.

[5] = tested on: Serratia marcescens ATCC 13880; test: Broad-spectrum antibacterial MIC; conditions: Table 7B; 10% hemolytic dose divided by MIC; S. marcescens ATCC 13880
Procedure: as §1, §2

[6] = tested on: six strains of S. aureus; test: Broad-spectrum antibacterial MIC, summary over S. aureus strains; conditions: text summary of Table 7B; 10% hemolytic dose / MIC
Procedure: The activities of ampetoids tested against BSL2 Gram-positive strains, however, compared very favorably to those of pexiganan.
as §2, with “E. faecalis 99 and E. faecium 106 are vancomycin-resistant enterococcal strains.” left out

Compound | Selectivity ratio (SR) [1] | MIC for B. subtilis ATCC 6633 [2] [µM] | MIC for E. coli ATCC 35218 [3] [µM] | SR [3] | Selectivity ratio (SR) [4] | Selectivity ratio (SR) [5] | Selectivity ratio SR B. subtilis [2] | Selectivity ratio SR E. coli [3] | Selectivity ratio SR E. coli ([3]; listed as 1-Nspd2,5,8,11) | selectivity ratios, range over S. aureus strains [6]
C[C@@H](c1ccccc1)N(CC(=O)N(CCc1cnc[nH]1)CC(=O)N(CCCCN)CC(=O)N(CC(=O)N(CC(=O)N(CCCCN)CC(=O)N(CC(=O)N(CCc1cnc[nH]1)CC(N)=O)[C@@H](C)c1ccccc1)[C@@H](C)c1ccccc1)[C@@H](C)c1ccccc1)C(=O)CN(CCCCN)C(=O)CN(C(=O)CN(C(=O)CNCCCCN)[C@@H](C)c1ccccc1)[C@@H](C)c1ccccc1 [1-Nhis6,12, H-(Nlys-Nspe-Nspe-Nlys-Nspe-Nhis)2-NH2] (H-[Nlys][Nspe][Nspe][Nlys][Nspe][Gly(N-CH2CH2-imidazol-4-yl)][Nlys][Nspe][Nspe][Nlys][Nspe][Gly(N-CH2CH2-imidazol-4-yl)]-NH2) | > 31 | 0.78 to 1.6 | 50 | >4.0 | – | – | – | – | – | –
CC(C)[C@H](C)N(CC(=O)N(CC(=O)N(CCCCN)CC(=O)N(CC(=O)N(CC(=O)N(CCCCN)CC(=O)N(CC(=O)N(CC(=O)N(CCCCN)CC(=O)N(CC(=O)N(CC(N)=O)[C@@H](C)c1ccccc1)[C@@H](C)C(C)C)[C@@H](C)c1ccccc1)[C@@H](C)C(C)C)[C@@H](C)c1ccccc1)[C@@H](C)C(C)C)[C@@H](C)c1ccccc1)C(=O)CNCCCCN [1-Nsdp2,5,8,11, H-(Nlys-Nsdp-Nspe)4-NH2] (H-[Nlys][X1][Nspe][Nlys][X1][Nspe][Nlys][X1][Nspe][Nlys][X1][Nspe]-NH2) | – | – | – | – | <1.5 | <1.5 | 142 | > 9.7 and 9.7 | 9.7 | –
NCCCCNCC(=O)N(CC(=O)N(CC(=O)N(CCCCN)CC(=O)N(CC(=O)N(CC(=O)N(CCCCN)CC(=O)N(CC(=O)N(CC(=O)N(CCCCN)CC(=O)N(CC(=O)N(CC(N)=O)Cc1ccccc1)Cc1ccccc1)Cc1ccccc1)Cc1ccccc1)Cc1ccccc1)Cc1ccccc1)Cc1ccccc1)Cc1ccccc1 [1achiral, H-(Nlys-Npm-Npm)4-NH2] (H-[Nlys][Nphe][Nphe][Nlys][Nphe][Nphe][Nlys][Nphe][Nphe][Nlys][Nphe][Nphe]-NH2) | – | 1.6 | 12.5 | 14 | <2.4 | 2.4 | 235 | 15 | – | 19-39
GIGKFLKKAKKFGKAFVKILKK-NH2 [pexiganan, reference compound] | – | – | 3.1 to 6.3 | 12 | <1.4 | <1.4 | 44 | 11 | – | 2.8-23
